{
  "source": "patent US20240041814A1",
  "about": "“USE OF REAGENT FOR DETECTING RETINOL METABOLITE IN PREPARATION OF TOOL FOR DIAGNOSING AND/OR TREATING PNEUMOCONIOSIS” (Institute of Basic Medical Sciences of Chinese Academy of …, priority 2022, published 2024)",
  "key": {"[1]": {"system": "FN-1 and Col-I", "experiment": "Western blot and qPCR of fibrosis factors in mouse lung tissue", "type": "in vivo", "conditions": "mice with pneumoconiosis, 10 mg/kg ATRA intragastrically 3 times a week for 4 weeks", "quoted_text": "Male C57BL/6J mice (aged 8-10 weeks and weighing 25-30 g) were selected and housed in an SPF grade laboratory animal room, and the model of pneumoconiosis was constructed by one-time intratracheal instillation of silica (Si); the mice were divided into four groups (n=9): (1) PBS+vehicle group: 40 μL of sterile phosphate-buffered saline (PBS) was administered by intratracheal instillation; two weeks later, corn oil was administered intragastrically 3 times a week, for 4 weeks; (2) PBS+ATRA group: 40 μL of sterile PBS was administered by intratracheal instillation; two weeks later, 10 mg/kg ATRA was administered intragastrically 3 times a week, for 4 weeks; (3) Si+vehicle group: a silica suspension (300 mg/mL, 40 μL) was administered by intratracheal instillation; two weeks later, corn oil was administered intragastrically 3 times a week, for 4 weeks; (4) Si+ATRA group: a silica suspension (300 mg/mL, 40 μL) was administered by intratracheal instillation; two weeks later, 10 mg/kg ATRA was administered intragastrically 3 times a week, for 4 weeks. All mice were sacrificed after 6 weeks, and the corresponding samples were collected for detection. Lung tissue proteins of all mice were extracted. […]"}, "[2]": {"system": "mice with pneumoconiosis", "experiment": "Pathological staining of lung (HE, Szapiel score; Masson, Aschroft score)", "type": "in vivo, mouse", "conditions": "10 mg/kg ATRA intragastrically 3 times a week for 4 weeks", "quoted_text": "Male C57BL/6J mice (aged 8-10 weeks and weighing 25-30 g) were selected and housed in an SPF grade laboratory animal room, and the model of pneumoconiosis was constructed by one-time intratracheal instillation of silica (Si); the mice were divided into four groups (n=9): (1) PBS+vehicle group: 40 μL of sterile phosphate-buffered saline (PBS) was administered by intratracheal instillation; two weeks later, corn oil was administered intragastrically 3 times a week, for 4 weeks; (2) PBS+ATRA group: 40 μL of sterile PBS was administered by intratracheal instillation; two weeks later, 10 mg/kg ATRA was administered intragastrically 3 times a week, for 4 weeks; (3) Si+vehicle group: a silica suspension (300 mg/mL, 40 μL) was administered by intratracheal instillation; two weeks later, corn oil was administered intragastrically 3 times a week, for 4 weeks; (4) Si+ATRA group: a silica suspension (300 mg/mL, 40 μL) was administered by intratracheal instillation; two weeks later, 10 mg/kg ATRA was administered intragastrically 3 times a week, for 4 weeks. All mice were sacrificed after 6 weeks, and the corresponding samples were collected for detection. […] For HE staining, inflammation was scored based on Szapiel scores; for Masson staining, the severity of fibrosis was scored by Aschroft scores. The sections were scanned, photographed and counted by a 3D HISTECH digital slide scanner."}, "[3]": {"system": "mice with pneumoconiosis", "experiment": "Cardiopulmonary function test (RVSP, lung function IC and Cst)", "type": "in vivo, mouse", "conditions": "ATRA-treated mice with pneumoconiosis compared with control mice, 10 mg/kg intragastrically 3 times a week for 4 weeks", "quoted_text": "Male C57BL/6J mice (aged 8-10 weeks and weighing 25-30 g) were selected and housed in an SPF grade laboratory animal room, and the model of pneumoconiosis was constructed by one-time intratracheal instillation of silica (Si); the mice were divided into four groups (n=9): (1) PBS+vehicle group: 40 μL of sterile phosphate-buffered saline (PBS) was administered by intratracheal instillation; two weeks later, corn oil was administered intragastrically 3 times a week, for 4 weeks; (2) PBS+ATRA group: 40 μL of sterile PBS was administered by intratracheal instillation; two weeks later, 10 mg/kg ATRA was administered intragastrically 3 times a week, for 4 weeks; (3) Si+vehicle group: a silica suspension (300 mg/mL, 40 μL) was administered by intratracheal instillation; two weeks later, corn oil was administered intragastrically 3 times a week, for 4 weeks; (4) Si+ATRA group: a silica suspension (300 mg/mL, 40 μL) was administered by intratracheal instillation; two weeks later, 10 mg/kg ATRA was administered intragastrically 3 times a week, for 4 weeks. All mice were sacrificed after 6 weeks, and the corresponding samples were collected for detection. An anesthetized mouse was fixed on an experimental bench, and an 8 gauge needle connected with a high-fidelity pressure sensor was inserted into the right ventricle to directly measure the invasive right ventricular systolic pressure (RVSP). The RVSP was recorded and analyzed by a Power Lab data acquisition and analysis system (PL 3504, AD Instruments, Australia). Mouse lung function was detected by a pulmonary function testing system (DSI Buxco, USA). Before experiment, the mouse was anesthetized by intraperitoneal injection of 0.4 mL/100 g 2% pentobarbital, tracheotomy was performed, a trachea cannula was inserted, and a ventilator was connected. […] A statistical analysis was conducted on indexes closely related to lung function changes of pneumoconiosis, including inspiratory capacity (IC) and quasi-static compliance (Cst)."}, "[4]": {"system": "IL-1β and IL-6", "experiment": "ELISA of inflammatory factors in mouse BALF", "type": "in vivo", "conditions": "mice with pneumoconiosis, 10 mg/kg ATRA intragastrically 3 times a week for 4 weeks", "method": "Male C57BL/6J mice (aged 8-10 weeks and weighing 25-30 g) were selected and housed in an SPF grade laboratory animal room, and the model of pneumoconiosis was constructed by one-time intratracheal instillation of silica (Si); the mice were divided into four groups (n=9): (1) PBS+vehicle group: 40 μL of sterile phosphate-buffered saline (PBS) was administered by intratracheal instillation; two weeks later, corn oil was administered intragastrically 3 times a week, for 4 weeks; (2) PBS+ATRA group: 40 μL of sterile PBS was administered by intratracheal instillation; two weeks later, 10 mg/kg ATRA was administered intragastrically 3 times a week, for 4 weeks; (3) Si+vehicle group: a silica suspension (300 mg/mL, 40 μL) was administered by intratracheal instillation; two weeks later, corn oil was administered intragastrically 3 times a week, for 4 weeks; (4) Si+ATRA group: a silica suspension (300 mg/mL, 40 μL) was administered by intratracheal instillation; two weeks later, 10 mg/kg ATRA was administered intragastrically 3 times a week, for 4 weeks. All mice were sacrificed after 6 weeks, and the corresponding samples were collected for detection.\nConcentrations of inflammatory factors IL-1β and IL-6 in mouse BALF were detected by using ELISA kits."}, "[5]": {"system": "mice with pneumoconiosis", "experiment": "Mouse model of pneumoconiosis (intratracheal silica) with ATRA treatment, overall outcome", "type": "in vivo", "conditions": "10 mg/kg ATRA intragastrically 3 times a week for 4 weeks"}},
  "data": [
    {"smiles": "CC1=C(/C=C/C(C)=C/C=C/C(C)=C/C(=O)O)C(C)(C)CCC1", "note": "[ATRA, All-trans retinoic acid]", "values": [
      {"measurement": "level of fibrosis factor Col-I in lung tissue (transcriptional)", "setting": "[1]", "result": "reduced levels"},
      {"measurement": "level of fibrosis factor FN-1 in lung tissue (translational and transcriptional)", "setting": "[1]", "result": "reduced levels"},
      {"measurement": "severity of fibrosis (Masson staining)", "setting": "[2]", "result": "reduce the severity"},
      {"measurement": "severity of inflammation (HE staining)", "setting": "[2]", "result": "reduce the severity"},
      {"measurement": "inspiratory capacity (IC)", "setting": "[3]", "result": "improved to a certain extent"},
      {"measurement": "quasi-static compliance (Cst)", "setting": "[3]", "result": "improved to a certain extent"},
      {"measurement": "right ventricular systolic pressure (RVSP)", "setting": "[3]", "result": "lowered to a certain extent"},
      {"measurement": "concentration of IL-1β in BALF", "setting": "[4]", "result": "lowered concentrations"},
      {"measurement": "concentration of IL-6 in BALF", "setting": "[4]", "result": "lowered concentrations"},
      {"measurement": "cardiopulmonary function, inflammation, and fibrosis", "setting": "[5]", "result": "significantly improve"}
    ]}
  ]
}
